Experiment in all cases: In vitro MIC, agar dilution
Holding throughout (type): cell-based

Test [1] concerns S. aureus Col(Meth^R)(lac^-). The following applies: Staphylococcus aureus, read-out: minimum inhibitory concentration (MIC). How it is done:
(§1) The compounds of the invention were evaluated against several β-lactamresistant (for example methicillin-resistant, vancomycin resistant, and/or ampicillin-resistant) bacteria strains by determining the minimum inhibitory concentration (MIC, μg/ml) of each compound with respect to each strain. The MIC, the lowest concentration of antibiotic which inhibits growth of the test organism, was determined by the agar dilution method.
(§2) To determine the MIC for bacterial isolates, the test compound was incorporated in a series of two-fold dilutions into liquified Mueller-Hinton agar. Upon solidification, a number of different bacterial strains were spot inoculated with a replicating device onto the agar surface.
(§3) Aliquots of antimicrobial agents were prepared in phosphate buffered saline (PBS) at pH 7.2. Tween 20 or DMSO was used as a solubilizing vehicle as needed. Standard methods of vortexing, sonicating and gentle heat were used to facilitate solubilizing the test agent. […] A 1.28 mg/mL stock solution was used with a subsequent highest working concentration of 128 μg/mL. Serial two-fold dilutions were done through ≤0.25 μg/mL. Each drug level was tested in duplicate. Two-fold drug dilutions were done in sterile 50 mL tubes with a final drug volume of 5 mL. Upon the addition of 45 mL of molten agar, a 10-fold dilution resulted. Two, 25 mL. plates were then poured into 15×150 mm square Petri plates with grids and allowed to harden.
(§4) A control plate with a reference drug, either cefotaxime, vancomycin or imipenem, was used as the positive growth control. Stock concentrations of reference antibiotics were prepared and frozen at -80° C. […] All test plates were used within 24 hours of preparation.
(§5) Satisfactory results were obtained where the inoculum contained about 10^4 colony forming units (cfu)±0.5 logs. Starting with pure cultures of the test isolates on agar plates, a few isolated colonies were transferred to a tube of nutrient broth and allowed to grow 4-6 hours at 35-36° C. to reach log-phase growth. Dropwise addition of the broth culture to PBS was done to match a 0.5 McFarland turbidity standard equal to 10^8 cfu/mL. This was further diluted ten-fold in PBS to reach a working inoculum concentration of 10^7 cfu/mL. When 1 μL of the working inoculum was applied to the agar surface a concentration of about 10^4 cfu per spot was obtained.
(§6) Disposable sterile 1 μL loops were used to inoculate test plates, with each isolate in a designated grid on the agar plate. An alternate method of inoculation involved the use of a replica plater, a device with 48 steel pins allowing the simultaneous inoculation of multiple isolates. After the spots had dried, the plates were incubated at 35-36° C. for 16-20 hours. Endpoints were assessed as the minimum inhibitory concentration (MIC) of antimicrobial agent.
The S. aureus Col strain is a high-level PBP2a producer, whereas S. aureus Col 8A, its isogenic partner, lacks PBP2a.

The subject of test [2] is S. aureus 76(Meth^R)(lac^+). The following applies: Staphylococcus aureus, read-out: minimum inhibitory concentration (MIC). How it is done:
as §1, §2, §3, §4, §5, §6

The next test relates to S. aureus ATCC 29213. The following applies: Staphylococcus aureus, ATCC29213, read-out: minimum inhibitory concentration (MIC). How it is done: as §1, §2, §3, §4, §5, §6
Test [3] has as its system S. aureus PC1(Meth^S)(lac^+). The following applies: Staphylococcus aureus, read-out: minimum inhibitory concentration (MIC). As for the experimental part:
as §1, §2, §3, §4, §5, §6

A further test relates to P. aeruginosa ATCC 27853. The following applies: Pseudomonas aeruginosa, ATCC27853, read-out: minimum inhibitory concentration (MIC). As for the experimental part:
as §1, §2, §3, §4, §5, §6

The subject of the next test is E. faecalis VanB(Van^R). The following applies: Enterococcus faecalis, read-out: minimum inhibitory concentration (MIC). How it is done: as §1, §2, §3, §4, §5, §6
For a further test, the system named is E. faecalis ATCC 29212. The following applies: Enterococcus faecalis, ATCC29212, read-out: minimum inhibitory concentration (MIC). How it is done: as §1, §2, §3, §4, §5, §6
Test [4] concerns S. haemolyticus 05(Meth^R). The following applies: Staphylococcus haemolyticus, read-out: minimum inhibitory concentration (MIC). As for the experimental part: as §1, §2, §3, §4, §5, §6
Test [5] has as its system S. aureus ATCC 13709(Meth^S). The following applies: Staphylococcus aureus, ATCC13709, S. aureus ATCC 13709(Meth^S); read-out: minimum inhibitory concentration (MIC). As for the experimental part: as §1, §2, §3, §4, §5, §6
A further test relates to E. faecium A491(Amp^R). The following applies: Enterococcus faecium, read-out: minimum inhibitory concentration (MIC). How it is done: as §1, §2, §3, §4, §5, §6
The test system of the next test is E. faecium VanA(Van^R). The following applies: Enterococcus faecium, read-out: minimum inhibitory concentration (MIC). As for the experimental part:
as §1, §2, §3, §4, §5, §6

Test [6] relates to S. aureus ATCC 33593(Meth^R). The following applies: Staphylococcus aureus, ATCC33593, read-out: minimum inhibitory concentration (MIC). How it is done:
as §1, §2, §3, §4, §5, §6

In a further test the test system is E. coli ATCC 25992. The following applies: Escherichia coli, ATCC25992, read-out: minimum inhibitory concentration (MIC). How it is done:
as §1, §2, §3, §4, §5, §6

Test [7] has as its system S. aureus Spain #356(Meth^R). The following applies: Staphylococcus aureus, read-out: minimum inhibitory concentration (MIC). As for the experimental part:
as §1, §2, §3, §4, §5, §6

A further test concerns E. faecium ATCC 35667. The following applies: Enterococcus faecium, ATCC35667, read-out: minimum inhibitory concentration (MIC). As for the experimental part: as §1, §2, §3, §4, §5, §6

In patent US6087355A, “Cephalosporin antibiotics” (Microcide Pharmaceuticals, Inc., priority 1996, dated 2000) one finds MIC data, which are given here for four compounds.

Where a name gives a salt, the structure may show the parent alone.

Take `CNCCSCc1cnccc1SC1=C(C(=O)O)N2C(=O)[C@@H](NC(=O)/C(=N\O)c3nc(N)sc3Cl)[C@H]2SC1` [Cmpd 41, (7R)-7-[(Z)-2-(2-amino-5-chlorothiazol-4-yl)-2-(hydroxyimino)acetamido]-3-(3-(2-N-methylaminoethylthiomethyl)pyrid-4-ylthio)-3-cephem-4-carboxylate, trifluoroacetic acid salt]: the MIC is 1 mg/L in test [1]; 1 mg/L in test [2]; 0.13 mg/L in the test with S. aureus ATCC 29213; 0.25 mg/L in test [3]; 32 mg/L in the test on P. aeruginosa ATCC 27853; not above 0.06 mg/L in the test on E. faecalis VanB(Van^R). The MIC in the test with E. faecalis ATCC 29212 is not above 0.06 mg/L; in test [4], 1 mg/L; in test [5] it was 0.13 mg/L; with E. faecium A491(Amp^R), 8 mg/L; with E. faecium VanA(Van^R) it was 1 mg/L; in test [6] it was 1 mg/L. Moreover, the results for the MIC (in the test with E. coli ATCC 25992; in [7]; in the test on E. faecium ATCC 35667) were 4 mg/L, 1 mg/L and 0.25 mg/L, respectively.

Consider `N=C(N)SCc1cnccc1SC1=C(C(=O)O)N2C(=O)[C@@H](NC(=O)/C(=N\O)c3nc(N)sc3Cl)[C@H]2SC1` [Cmpd 60, (7R)-7-[(Z)-2-(2-amino-5-chlorothiazol-4-yl)-2-(hydroxyimino)acetamido]-3-(3-isothioureidomethylpyrid-4-ylthio)-3-cephem-4-carboxylate, trifluoroacetic acid salt], for which the MIC in [1] is 2 mg/L; in [2], 1 mg/L; in the test on S. aureus ATCC 29213 it was 0.25 mg/L; in [3], 0.25 mg/L; in the test with P. aeruginosa ATCC 27853, more than 32 mg/L; with E. faecalis VanB(Van^R), 0.25 mg/L. Besides, the MIC with E. faecalis ATCC 29212 turned out to be 0.5 mg/L; in [4], 4 mg/L; in test [5], 0.13 mg/L; in the test on E. faecium A491(Amp^R), 16 mg/L; in the test on E. faecium VanA(Van^R) it was 2 mg/L; in test [6] it was 2 mg/L. The MIC in the test on E. coli ATCC 25992 was found to be 8 mg/L; in test [7] it was 2 mg/L; with E. faecium ATCC 35667 it was 1 mg/L.

Take `CC(N)COCc1cnccc1SC1=C(C(=O)O)N2C(=O)[C@@H](NC(=O)/C(=N\O)c3nc(N)sc3Cl)[C@H]2SC1` (stereo partly drawn) [Cmpd 49, (7R)-7-[(Z)-2-(2-amino-5-chlorothiazol-4-yl)-2-(hydroxyimino)acetamido]-3-(3-(2-aminopropyloxymethyl)pyrid-4-ylthio)-3-cephem-4-carboxylate, trifluoroacetic acid salt]: the MIC in test [1] was 2 mg/L; in test [2], 2 mg/L; with S. aureus ATCC 29213 it was 0.25 mg/L; in test [3], 0.5 mg/L; in the test on P. aeruginosa ATCC 27853 it was more than 32 mg/L; with E. faecalis VanB(Van^R) it was 0.13 mg/L. The MIC in the test with E. faecalis ATCC 29212 came to 0.13 mg/L; in test [4] it was 4 mg/L; in [5] it was 0.25 mg/L; in the test on E. faecium A491(Amp^R), 16 mg/L; in the test with E. faecium VanA(Van^R), 2 mg/L; in test [6], 2 mg/L. The values for the MIC (in the test on E. coli ATCC 25992; in test [7]; in the test with E. faecium ATCC 35667) were 8 mg/L, 2 mg/L and 1 mg/L, respectively.

Regarding `CC(C)(N)CSCc1cnccc1SC1=C(C(=O)O)N2C(=O)[C@@H](NC(=O)/C(=N\O)c3nc(N)sc3Cl)[C@H]2SC1` [Cmpd 62, (7R)-7-[(Z)-2-(2-amino-5-chlorothiazol-4-yl)-2-(hydroxyimino)acetamido]-3-(3-(2-amino-2-methylpropylthiomethyl)pyrid-4-ylthio)-3-cephem-4-carboxylate, trifluoroacetic acid salt], the MIC in [1] is 4 mg/L; in test [2] it was 4 mg/L; in the test with S. aureus ATCC 29213 it was 0.5 mg/L; in test [3] it was 0.5 mg/L; in the test on P. aeruginosa ATCC 27853, more than 32 mg/L; in the test on E. faecalis VanB(Van^R), 0.25 mg/L. Besides, the MIC turned out to be 0.13 mg/L in the test with E. faecalis ATCC 29212; 4 mg/L in [4]; 0.5 mg/L in [5]; 16 mg/L with E. faecium A491(Amp^R); 2 mg/L with E. faecium VanA(Van^R); 4 mg/L in test [6]. Also, the MIC is 8 mg/L in the test with E. coli ATCC 25992, 4 mg/L in test [7] and 1 mg/L in the test with E. faecium ATCC 35667.
